Data as given in patent publication US20170121322A1, “BET-PROTEIN INHIBITING 3,4-DIHYDROPYRIDO[2,3-B]PYRAZINONES WITH META-SUBSTITUTED AROMATIC AMINO- OR ETHER GROUPS” (Bayer Pharma Aktiengesellschaft, priority 2014, published 2017).

Assays:
[1] = biological target: T1, BRD4 bromo domain 1 [BRD4(1)] (Homo sapiens, UniProt O60885); assay: BRD4(1)/acetylated peptide H4 TR-FRET binding assay; details: His6-BRD4(1) (aa 67-152) vs acetylated histone H4 peptide
T1 construct: N-terminally His6-tagged BRD4(1) (amino acids 67-152); made in house; host or cells: E. coli
Text: To assess the BRD4(1) binding strength of the substances described in this application, the ability thereof to inhibit the interaction between BRD4(1) and acetylated histone H4 in a dose-dependent manner was quantified.
For this purpose, a time-resolved fluorescence resonance energy transfer (TR-FRET) assay was used, which measures the binding between N-terminally His6-tagged BRD4(1) (amino acids 67-152) and a synthetic acetylated histone H4 (Ac-H4) peptide with sequence GRGK(Ac)GGK(Ac)GLGK(Ac)GGAK(Ac)RHGSGSK-biotin. The recombinant BRD4(1) protein produced in-house according to Filippakopoulos et al., Cell, 2012, 149:214-231 was expressed in E. coli and purified by means of (Ni-NTA) affinity and (Sephadex G-75) size exclusion chromatography. The Ac-H4 peptide can be purchased, for example, from Biosyntan (Berlin, Germany).
In the assay, typically 11 different concentrations of each substance (0.1 nM, 0.33 nM, 1.1 nM, 3.8 nM, 13 nM, 44 nM, 0.15 μM, 0.51 μM, 1.7 μM, 5.9 μM and 20 μM) were analysed as duplicates on the same microtitre plate. For this purpose, 100-fold concentrated solutions in DMSO were prepared by serial dilutions (1:3.4) of a 2 mM stock solution into a clear, 384-well microtitre plate (Greiner Bio-One, Frickenhausen, Germany). From this, 50 nl were transferred into a black test plate (Greiner Bio-One, Frickenhausen, Germany). The test was started by the addition of 2 μl of a 2.5-fold concentrated BRD4(1) solution (final concentration typically 10 nM in the 5 μl of reaction volume) in aqueous assay buffer [50 mM HEPES pH 7.5, 50 mM sodium chloride (NaCl), 0.25 mM CHAPS and 0.05% serum albumin (BSA)] to the substances in the test plate. This was followed by a 10-minute incubation step at 22° C. for the pre-equilibration of putative complexes between BRD4(1) and the substances. Subsequently, 3 μl of a solution of 1.67 times the concentration (in assay buffer) consisting of Ac-H4 peptide (83.5 nM) and TR-FRET detection reagents [16.7 nM anti-6His-XL665 and 3.34 nM streptavidin cryptate (both from Cisbio Bioassays, Codolet, France), and 668 mM potassium fluoride (KF)] were added.
The mixture was then incubated in the dark at 22° C. for one hour and then at 4° C. for at least 3 hours and for no longer than overnight. The formation of BRD4(1)/Ac-H4 complexes was determined by the measurement of the resonance energy transfer from the streptavidin-Eu cryptate to the anti-6His-XL665 antibody present in the reaction. For this purpose, the fluorescence emission was measured at 620 nm and 665 nm after excitation at 330-350 nm in a TR-FRET measuring instrument, for example a Rubystar or Pherastar (both from BMG Lab Technologies, Offenburg, Germany) or a Viewlux (Perkin-Elmer). The ratio of the emissions at 665 nm and at 622 nm was taken as an indicator of the amount of BRD4(1)/Ac-H4 complexes formed.
The data (ratios) obtained were normalized, with 0% inhibition corresponding to the mean from the measurements for a set of controls (typically 32 data points) in which all the reagents were present. In these, in place of test substances, 50 nl of DMSO (100%) were used. Inhibition of 100% corresponded to the mean from the measurements for a set of controls (typically 32 data points) in which all the reagents except BRD4(1) were present. The IC50 was determined by regression analysis based on a 4-parameter equation (minimum, maximum, IC50, Hill; Y=Max+(Min−Max)/(1+(X/IC50)Hill).

MOLP-8 cells = assay: Cell proliferation assay MOLP-8 (alamarBlue); format: cell-based; details: Homo sapiens, multiple myeloma cells, 120 hours
Experimental: In accordance with the invention, the ability of the substances to inhibit cell proliferation was determined. Cell viability was determined by means of the alamarBlue® reagent (Invitrogen) in a Victor X3 Multilabel Reader (Perkin Elmer). The excitation wavelength was 530 nm and the emission wavelength […].
The MOLP-8 cells (DSMZ, ACC 569) were seeded at a concentration of 4000 cells/well in 100 μl of growth medium (RPMI1640, 20% FCS) on 96-well microtitre plates.
After overnight incubation at 37° C., the fluorescence values (CI values) were determined. Then the plates were treated with various substance dilutions (1E-5 M, 3E-6 M, 1E-6 M, 3E-7 M, 1E-7 M, 3E-8 M, 1E-8 M) and incubated at 37° C. over 96 hours (MOLM-13, B16F10, CHL-1 cells) or 120 hours (MOLP-8 cells). Subsequently, the fluorescence values were determined (CO values). For the data analysis, the CI values were subtracted from the CO values and the results were compared between cells which had been treated with various dilutions of the substance or only with buffer solution. The IC50 values (substance concentration needed for 50% inhibition of cell proliferation) were calculated therefrom.
The substances were tested in the cell lines in Table 2, which represent the indications specified by way of example: […]

Compound `C[C@@H]1C(=O)N(C)c2ccc(Nc3cccc(C(F)(F)F)c3)nc2N1C1CCOCC1` [Example 43, (3R)-1,3-Dimethyl-4-(tetrahydro-2H-pyran-4-yl)-6-{[3-(trifluoromethyl)phenyl]amino}-3,4-dihydropyrido[2,3-b]pyrazin-2(1H)-one] has an IC50 [1] of 321 nM and an IC50 (MOLP-8 cells) of 911 nM.
With `CC(C)S(=O)(=O)c1cccc(Nc2ccc3c(n2)N(C2CCOCC2)[C@H](C)C(=O)N3C)c1` [Example 7, (3R)-6-{[3-(Isopropylsulphonyl)phenyl]amino}-1,3-dimethyl-4-(tetrahydro-2H-pyran-4-yl)-3,4-dihydropyrido[2,3-b]pyrazin-2(1H)-one] the IC50 [1] was 28 nM and the IC50 (MOLP-8 cells) was 75 nM.
For `CCOC(=O)N=S(C)(=O)c1cccc(Nc2ccc3c(n2)N(C2CCOCC2)[C@H](C)C(=O)N3C)c1` (mixture of isomers) [Example 10, Ethyl [(3-{[(3R)-1,3-dimethyl-2-oxo-4-(tetrahydro-2H-pyran-4-yl)-1,2,3,4-tetrahydropyrido[2,3-b]pyrazin-6-yl]amino}phenyl)(methyl)oxido-λ^6-sulphanylidene]carbamate], the IC50 [1] was 3630 nM and the IC50 (MOLP-8 cells) was 281 nM.
`COc1ccc(S(=O)(=O)C(C)C)cc1Nc1ccc2c(n1)N(C(C)C)[C@H](C)C(=O)N2C` [Example 16, (3R)-4-Isopropyl-6-{[5-(isopropylsulphonyl)-2-methoxyphenyl]amino}-1,3-dimethyl-3,4-dihydropyrido[2,3-b]pyrazin-2(1H)-one] gave an IC50 [1] of 88 nM and an IC50 (MOLP-8 cells) of 135 nM.
Compound `Cc1ccc(S(C)(=O)=O)cc1Nc1ccc2c(n1)N(C1CCOCC1)[C@H](C)C(=O)N2C` [Example 2, (3R)-1,3-Dimethyl-6-{[2-methyl-5-(methylsulphonyl)phenyl]amino}-4-(tetrahydro-2H-pyran-4-yl)-3,4-dihydropyrido[2,3-b]pyrazin-2(1H)-one] has an IC50 [1] of 83 nM and an IC50 (MOLP-8 cells) of 236 nM.
For `C[C@@H]1C(=O)N(C)c2ccc(Nc3cccc(S(=O)(=O)C4CC4)c3)nc2N1C1CCOCC1` [Example 6, (3R)-6-{[3-(Cyclopropylsulphonyl)phenyl]amino}-1,3-dimethyl-4-(tetrahydro-2H-pyran-4-yl)-3,4-dihydropyrido[2,3-b]pyrazin-2(1H)-one], the IC50 [1] was 24 nM and the IC50 (MOLP-8 cells) was 67 nM.
Compound `COc1ccc(S(C)(=O)=O)cc1Nc1ccc2c(n1)N(C1CCOCC1)[C@H](C)C(=O)N2C` [Example 3, (3R)-6-{[2-Methoxy-5-(methylsulphonyl)phenyl]amino}-1,3-dimethyl-4-(tetrahydro-2H-pyran-4-yl)-3,4-dihydropyrido[2,3-b]pyrazin-2(1H)-one] has an IC50 [1] of 79 nM and an IC50 (MOLP-8 cells) of 103 nM.
For `C[C@@H]1C(=O)N(C)c2ccc(Nc3cccc(S(C)(=O)=O)c3)nc2N1C1CCN(C)CC1` [Example 11, (3R)-1,3-Dimethyl-4-(1-methylpiperidin-4-yl)-6-{[3-(methylsulphonyl)phenyl]amino}-3,4-dihydropyrido[2,3-b]pyrazin-2(1H)-one], the IC50 [1] was 94 nM and the IC50 (MOLP-8 cells) was 167 nM.
`CC1C(=O)N(C)c2ccc(Nc3cccc(S(C)(=O)=O)c3)nc2N1c1ccccc1` (stereo not drawn) [Example 17, 1,3-Dimethyl-6-{[3-(methylsulphonyl)phenyl]amino}-4-phenyl-3,4-dihydropyrido[2,3-b]pyrazin-2(1H)-one] gave an IC50 [1] of 303 nM and an IC50 (MOLP-8 cells) of 1060 nM.
Compound `COc1ccc(S(=O)(=O)C2CC2)cc1Nc1ccc2c(n1)N(C1CCOCC1)[C@H](C)C(=O)N2C` [Example 8, (3R)-6-{[5-(Cyclopropylsulphonyl)-2-methoxyphenyl]amino}-1,3-dimethyl-4-(tetrahydro-2H-pyran-4-yl)-3,4-dihydropyrido[2,3-b]pyrazin-2(1H)-one] has an IC50 [1] of 23 nM and an IC50 (MOLP-8 cells) of 23 nM.
Work on `COc1ccc(S(=O)(=O)C2CC2)cc1Nc1ccc2c(n1)N(C1CCN(C)CC1)[C@H](C)C(=O)N2C` [Example 12, (3R)-6-{[5-(Cyclopropylsulphonyl)-2-methoxyphenyl]amino}-1,3-dimethyl-4-(1-methylpiperidin-4-yl)-3,4-dihydropyrido[2,3-b]pyrazin-2(1H)-one] yielded an IC50 [1] of 19 nM and an IC50 (MOLP-8 cells) of 22 nM.
Work on `Cc1cc(Nc2ccc3c(n2)N(C2CCOCC2)[C@H](C)C(=O)N3C)ccn1` [Example 42, (3R)-1,3-Dimethyl-6-[(2-methylpyridin-4-yl)amino]-4-(tetrahydro-2H-pyran-4-yl)-3,4-dihydropyrido[2,3-b]pyrazin-2(1H)-one] yielded an IC50 [1] of 228 nM and an IC50 (MOLP-8 cells) of 436 nM.
`C[C@@H]1C(=O)N(C)c2ccc(Nc3cccc(S(C)(=O)=O)c3)nc2N1C1CCCCCC1` [Example 5, (3R)-4-Cycloheptyl-1,3-dimethyl-6-{[3-(methylsulphonyl)phenyl]amino}-3,4-dihydropyrido[2,3-b]pyrazin-2(1H)-one] was tested, and the IC50 [1] was 152 nM and the IC50 (MOLP-8 cells) was 560 nM.
With `COc1ccc(S(=O)(=O)C(C)C)cc1Nc1ccc2c(n1)N(C1CCOCC1)[C@H](C)C(=O)N2C` [Example 9, (3R)-6-{[5-(Isopropylsulphonyl)-2-methoxyphenyl]amino}-1,3-dimethyl-4-(tetrahydro-2H-pyran-4-yl)-3,4-dihydropyrido[2,3-b]pyrazin-2(1H)-one] the IC50 [1] was 25 nM and the IC50 (MOLP-8 cells) was 38 nM.
Compound `COc1ccc(S(=O)(=O)C2CC2)cc1Nc1ccc2c(n1)N(C(C)C)[C@H](C)C(=O)N2C` [Example 15, (3R)-6-{[5-(Cyclopropylsulphonyl)-2-methoxyphenyl]amino}-4-isopropyl-1,3-dimethyl-3,4-dihydropyrido[2,3-b]pyrazin-2(1H)-one] has an IC50 [1] of 73 nM and an IC50 (MOLP-8 cells) of 118 nM.
